Data set [1] in a line: Influence of UV irradiation on fluorescence intensity of SAHA-fluorophore conjugates. The settings on record: UV irradiated 0-30 minutes; HEK293T cells expressing HDAC6-NANOLUC fusion. The data set is classed as physicochemical. As to the method:
During development of the BRET approach described herein for estimating crosslinking efficiency, experiments were conducted to determine the influence of UV irradiation on the bioluminescent intensity of the energy donor NANOLUC, and the fluorescence intensity of three fluorophores that can be used as energy acceptors (FIGS. 12-15). The model system for these experiments (FIG. 13) was the interaction between HDAC6 fused to NANOLUC and SAHA (vorinostat), which binds to HDAC6 and was conjugated to one of three fluorophores NCT, TAMRA, and BODIPY576 (FIG. 12). In these experiments HEK293T cells transiently expressing HAD6-NANOLUC fusion were treated for 2 hours with serial dilution of SAHA-fluorophore conjugate, then UV irradiated for 0-30 minutes and subsequently treated with NANOGLO detection reagent. […] Thus, NANOLUC and NCT were chosen as a BRET donor and acceptor pair for the assays estimating photocrosslinking efficiency.

In the next data set the test system is STAT5 reporter. Description: STAT5 reporter expression in K-562 cells. It counts as cell-based. To be noted: Homo sapiens, K562; K-562 cells transiently expressing a STAT5 reporter, 24 hours; read-out: IC50, inhibited expression of a STAT5 reporter. Here is the method:
Dasatinib is a broad kinase inhibitor targeting the BCR-ABL oncogenic pathway, thereby reducing the downstream activation of STAT5. K-562 cells transiently expressing a STAT5 reporter (2×10^5 cells/mL) were treated with serial dilution of dasatinib or a derivative having cleavable chloroalkane tag (+/−a PRG) for 24 hours and then tested for expression of the STAT5 reporter.

Structures are written as SMILES.

`O=C(CCCCCCC(=O)Nc1ccc(CNC(=O)CCc2ccc3n2[B-](F)(F)[N+]2=C(c4ccc[nH]4)C=CC2=C3)cc1)NO` [SAHA-BODIPY576]: the “Fluorescence intensity under UV irradiation” value in data set [1] is recorded as “decreased the fluorescence intensity”.

Turning to `O=C(CCCCCCC(=O)Nc1ccc(CNC(=O)c2ccc(C(=O)O)c(C3=c4cc5c6c(c4Oc4c3cc3c7c4CCCN7CCCC3)CCC[N+]=6CCCC5)c2)cc1)NO` [SAHA-NCT], in data set [1], the “Fluorescence intensity under UV irradiation” value was “not significantly affected”. The same measure, in the same setting: for `CN(C)c1ccc2c(-c3cc(C(=O)NCc4ccc(NC(=O)CCCCCCC(=O)NO)cc4)ccc3C(=O)O)c3ccc(=[N+](C)C)cc-3oc2c1` [SAHA-TMR] the value was “decreased the fluorescence intensity”.

For the molecule `Cc1nc(Nc2ncc(C(=O)Nc3c(C)cccc3Cl)s2)cc(N2CCN(CCO)CC2)n1` [dasatinib], the IC50 (as a rule, the midpoint of a concentration-inhibition curve) in the data set on STAT5 reporter was 0.4 nM.

Values taken from US11913944B2, “Photoaffinity probes” (Promega Corporation, priority 2019, dated 2024).
